Tests used:
Type in all cases: in vivo
Abutilon theophrasti [1] = test: Weeding effect in post-emergence stage; details: Dose 15 g/ha; level of fresh weight growth control rate
How it was run: (§1)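 Pot-grown greenhouse plants sprayed at 2–3 leaf stage, 2 weeks after sowing, with compound in acetone/Tween 80 plus methyl oleate emulsifiable concentrate (1.5 liter/ha) at 500–7.5 g/ha. Growth control rated 3 weeks after treatment; mean of three replicates.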

Alopecurus japonicus = test: Weeding effect in post-emergence stage; details: Dose 15 g/ha; level of fresh weight growth control rate
How it was run: as §1

Digitaria sanguinalis = test: Weeding effect in post-emergence stage; details: Dose 15 g/ha; level of fresh weight growth control rate
How it was run: as §1

Eleusine indica = test: Weeding effect in post-emergence stage; details: Dose 15 g/ha; level of fresh weight growth control rate
How it was run: as §1

Setaria viridis [2] = test: Weeding effect in post-emergence stage; details: Dose 15 g/ha; level of fresh weight growth control rate
How it was run: as §1

Echinochloa crusgalli = test: Weeding effect in post-emergence stage; details: Dose 15 g/ha; level of fresh weight growth control rate
How it was run: as §1

Abutilon theophrasti [3] = test: Weeding effect in pre-emergence stage; details: 30 g/ha, 4 weeks
Description: (§2) The activity level criteria for plant damage (i.e., growth control rate) are as follows:
(§3) The aforementioned seeds of monocotyledonous and dicotyledonous weeds and main crops were put into a plastic pot loaded with soil and covered with 0.5-2 cm soil. The test compounds of the present invention was dissolved with acetone, then added with tween 80, diluted by a certain amount of water to reach a certain concentration, and sprayed immediately after sowing. The obtained seeds were incubated for 4 weeks in the greenhouse after spraying and the test results were observed. It was observed that the herbicide mostly had excellent effect at the application rate of 500, 250, 125, 60, 30, 15, 7.5 g/ha, especially to weeds such as Echinochloa crusgalli. Digitaria sanguinalis and Abutilon theophrasti, etc. And many compounds had good selectivity for corn, cotton, wheat, rice, soybean, and peanut etc. In addition, evaluate the weed control effect with the above activity standard level.

Amaranthus retroflexus = test: Weeding effect in pre-emergence stage; details: 30 g/ha, 4 weeks
Description: as §2, §3

Capsella bursa-pastoris = test: Weeding effect in pre-emergence stage; details: 30 g/ha, 4 weeks
Description: as §2, §3

Descurainia sophia = test: Weeding effect in pre-emergence stage; details: 30 g/ha, 4 weeks
Description: as §2, §3

Setaria viridis [4] = test: Weeding effect in pre-emergence stage; details: 30 g/ha, 4 weeks
Description: as §2, §3

Veronica didyma Tenore = test: Weeding effect in pre-emergence stage; details: 30 g/ha, 4 weeks
Description: as §2, §3

Peanut = test: Pre-emergence stage, crop selectivity; details: 30 g/ha, 4 weeks
Description: as §2, §3

Soybeans = test: Pre-emergence stage, crop selectivity; details: 30 g/ha, 4 weeks
Description: as §2, §3

corn = test: Pre-emergence stage, crop selectivity; details: 30 g/ha, 4 weeks
Description: as §2, §3

cotton = test: Pre-emergence stage, crop selectivity; details: 30 g/ha, 4 weeks
Description: as §2, §3

SMILES	Weeding effect in post-emergence stage, Abutilon theophrasti (Abutilon theophrasti [1])	Weeding effect in post-emergence stage, Alopecurus japonicus (Alopecurus japonicus)	Weeding effect in post-emergence stage, Digitaria sanguinalis (Digitaria sanguinalis)	Weeding effect in post-emergence stage, Eleusine indica (Eleusine indica)	Weeding effect in post-emergence stage, Setaria viridis (Setaria viridis [2])	Weeding effect in post-emergence stage, Echinochloa crusgalli (Echinochloa crusgalli)	activity level (growth control rate) Abutilon theophrasti (Abutilon theophrasti [3])	activity level (growth control rate) Amaranthus retroflexus (Amaranthus retroflexus)	activity level (growth control rate) Capsella bursa-pastoris (Capsella bursa-pastoris)	activity level (growth control rate) Descurainia sophia (Descurainia sophia)	activity level (growth control rate) Setaria viridis (Setaria viridis [4])	activity level (growth control rate) Veronica didyma Tenore (Veronica didyma Tenore)	plant damage level Peanut (Peanut)	plant damage level Soybeans (Soybeans)	plant damage level Corn (corn)	plant damage level Cotton (cotton)
CCCOC(=O)[C@@H](C)O/N=C/c1cc(-n2c(=O)cc(C(F)(F)F)n(C)c2=O)c(F)cc1Cl [198(R)]	5 (Level 5: growth control rate is above 85%)	5 (Level 5: growth control rate is above 85%)	5 (Level 5: growth control rate is above 85%)	5 (Level 5: growth control rate is above 85%)	5 (Level 5: growth control rate is above 85%)	5 (Level 5: growth control rate is above 85%)	5 (Level 5: growth control rate is above 85%)	5 (Level 5: growth control rate is above 85%)	5 (Level 5: growth control rate is above 85%)	5 (Level 5: growth control rate is above 85%)	5 (Level 5: growth control rate is above 85%)	5 (Level 5: growth control rate is above 85%)	0 (Level 0: growth control rate is less than 5%)	0 (Level 0: growth control rate is less than 5%)	0 (Level 0: growth control rate is less than 5%)	0 (Level 0: growth control rate is less than 5%)
CC(C)OC(=O)[C@@H](C)O/N=C/c1cc(-n2c(=O)cc(C(F)(F)F)n(C)c2=O)c(F)cc1Cl [199(R)]	5 (Level 5: growth control rate is above 85%)	5 (Level 5: growth control rate is above 85%)	5 (Level 5: growth control rate is above 85%)	5 (Level 5: growth control rate is above 85%)	5 (Level 5: growth control rate is above 85%)	5 (Level 5: growth control rate is above 85%)	5 (Level 5: growth control rate is above 85%)	5 (Level 5: growth control rate is above 85%)	5 (Level 5: growth control rate is above 85%)	5 (Level 5: growth control rate is above 85%)	5 (Level 5: growth control rate is above 85%)	5 (Level 5: growth control rate is above 85%)	0 (Level 0: growth control rate is less than 5%)	0 (Level 0: growth control rate is less than 5%)	0 (Level 0: growth control rate is less than 5%)	0 (Level 0: growth control rate is less than 5%)
C=CCOC(=O)[C@@H](C)O/N=C/c1cc(-n2c(=O)cc(C(F)(F)F)n(C)c2=O)c(F)cc1Cl [208(R)]	5 (Level 5: growth control rate is above 85%)	5 (Level 5: growth control rate is above 85%)	5 (Level 5: growth control rate is above 85%)	5 (Level 5: growth control rate is above 85%)	5 (Level 5: growth control rate is above 85%)	5 (Level 5: growth control rate is above 85%)	5 (Level 5: growth control rate is above 85%)	5 (Level 5: growth control rate is above 85%)	5 (Level 5: growth control rate is above 85%)	5 (Level 5: growth control rate is above 85%)	5 (Level 5: growth control rate is above 85%)	5 (Level 5: growth control rate is above 85%)	0 (Level 0: growth control rate is less than 5%)	0 (Level 0: growth control rate is less than 5%)	0 (Level 0: growth control rate is less than 5%)	0 (Level 0: growth control rate is less than 5%)
C[C@@H](O/N=C/c1cc(-n2c(=O)cc(C(F)(F)F)n(C)c2=O)c(F)cc1Cl)C(=O)OCCF [216(R)]	5 (Level 5: growth control rate is above 85%)	4 (Level 4: growth control rate is greater than or equal to 60% and less than 85%)	5 (Level 5: growth control rate is above 85%)	5 (Level 5: growth control rate is above 85%)	5 (Level 5: growth control rate is above 85%)	5 (Level 5: growth control rate is above 85%)	5 (Level 5: growth control rate is above 85%)	5 (Level 5: growth control rate is above 85%)	5 (Level 5: growth control rate is above 85%)	5 (Level 5: growth control rate is above 85%)	5 (Level 5: growth control rate is above 85%)	5 (Level 5: growth control rate is above 85%)	0 (Level 0: growth control rate is less than 5%)	0 (Level 0: growth control rate is less than 5%)	0 (Level 0: growth control rate is less than 5%)	0 (Level 0: growth control rate is less than 5%)
CCOC(=O)COC(=O)[C@@H](C)O/N=C/c1cc(-n2c(=O)cc(C(F)(F)F)n(C)c2=O)c(F)cc1Cl [239(R)]	5 (Level 5: growth control rate is above 85%)	5 (Level 5: growth control rate is above 85%)	5 (Level 5: growth control rate is above 85%)	5 (Level 5: growth control rate is above 85%)	5 (Level 5: growth control rate is above 85%)	5 (Level 5: growth control rate is above 85%)	5 (Level 5: growth control rate is above 85%)	5 (Level 5: growth control rate is above 85%)	5 (Level 5: growth control rate is above 85%)	5 (Level 5: growth control rate is above 85%)	5 (Level 5: growth control rate is above 85%)	5 (Level 5: growth control rate is above 85%)	0 (Level 0: growth control rate is less than 5%)	0 (Level 0: growth control rate is less than 5%)	0 (Level 0: growth control rate is less than 5%)	0 (Level 0: growth control rate is less than 5%)
